Measurements from patent publication US6737383B1, “Herbicidal oxadiazolidines” (priority 1999, dated 2004).

Tests used:
bedstraw = experiment: Test B pre/postemergence bedstraw; type: in vivo, Galium aparine
How it was run: (§1)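 Response is a visual 0-to-10 score relative to untreated plants, where 0 means no effect and 10 means complete control, taken twelve to sixteen days after application. Treatments went onto soil at planting and onto foliage of 1- to 4-leaf plants, using a surfactant-containing non-phytotoxic solvent.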

blackgrass = experiment: Test B pre/postemergence blackgrass; type: in vivo, Alopecurus myosuroides
How it was run: as §1

surinam grass = experiment: Test B pre/postemergence surinam grass; type: in vivo, Brachiaria decumbens
How it was run: as §1

cocklebur = experiment: Test B pre/postemergence cocklebur; type: in vivo, Xanthium strumarium
How it was run: as §1

corn = experiment: Test B pre/postemergence corn; type: in vivo, Zea mays
How it was run: as §1

crabgrass = experiment: Test B pre/postemergence crabgrass; type: in vivo, Digitaria sanguinalis
How it was run: as §1

giant foxtail = experiment: Test B pre/postemergence giant foxtail; type: in vivo, Setaria faberii
How it was run: as §1

morningglory = experiment: Test B pre/postemergence morningglory; type: in vivo, Ipomoea hederacea
How it was run: as §1

pigweed = experiment: Test B pre/postemergence pigweed; type: in vivo, Amaranthus retroflexus
How it was run: as §1

rape = experiment: Test B pre/postemergence rape; type: in vivo, Brassica napus
How it was run: as §1

soybean = experiment: Test B pre/postemergence soybean; type: in vivo, Glycine max
How it was run: as §1

sugar beet = experiment: Test B pre/postemergence sugar beet; type: in vivo, Beta vulgaris
How it was run: as §1

velvetleaf = experiment: Test B pre/postemergence velvetleaf; type: in vivo, Abutilon theophrasti
How it was run: as §1

wheat = experiment: Test B pre/postemergence wheat; type: in vivo, Triticum aestivum
How it was run: as §1

wild oat = experiment: Test B pre/postemergence wild oat; type: in vivo, Avena fatua
How it was run: as §1

purple nutsedge = experiment: Test B pre/postemergence purple nutsedge; type: in vivo, Cyperus rotundus
How it was run: as §1

[1] = Preemergence, Rate 62 g/ha, scale of 0 to 10 where 0 is no effect and 10 is complete control
[2] = Preemergence, Rate 125 g/ha, 0 is no effect, 10 is complete control
[3] = Preemergence, Rate 250 g/ha, scale 0 to 10, 0 is no effect, 10 is complete control
[4] = Preemergence, Rate 500 g/ha, scale 0 to 10 (0 no effect, 10 complete control)
[5] = Rate 62 g/ha, Postemergence, scale of 0 to 10 where 0 is no effect and 10 is complete control
[6] = Rate 125 g/ha, Postemergence, scale 0 to 10
[7] = Rate 500 g/ha, Postemergence, scale 0 to 10

CC(C)N(C(=O)n1oc(=O)n([C@H](C)c2ccccc2)c1=O)c1ccc(F)cc1 [Compound 179]
Bedstraw plant response rating (bedstraw; [1]): 0 | Bedstraw plant response rating (0 to 10 scale) (bedstraw; [2]): 0 | Bedstraw plant response rating (bedstraw; [3]): 0 | Bedstraw plant response rating (bedstraw; [4]): 0 | Bedstraw plant response rating (bedstraw; [5]): 0 | Bedstraw plant response rating (bedstraw; [6]): 5 | Plant response rating (0 to 10; 0 is no effect, 10 is complete control), Bedstraw (bedstraw; Rate 250 g/ha, Postemergence): 5 | Bedstraw plant response rating (bedstraw; [7]): 10 | Blackgrass plant response rating (blackgrass; [1]): 0 | Blackgrass plant response rating (0 to 10 scale) (blackgrass; [2]): 0 | Blackgrass plant response rating (blackgrass; [3]): 2 | Blackgrass plant response rating (blackgrass; [4]): 2 | Blackgrass plant response rating (blackgrass; [5]): 0 | Blackgrass plant response rating (blackgrass; [6]): 2 | Plant response rating (0 to 10; 0 is no effect, 10 is complete control), Blackgrass (blackgrass; Rate 250 g/ha, Postemergence): 4 | Blackgrass plant response rating (blackgrass; [7]): 6 | B. signalgrass plant response rating (surinam grass; [1]): 7 | B. signalgrass plant response rating (0 to 10 scale) (surinam grass; [2]): 8 | B. signalgrass plant response rating (surinam grass; [4]): 9 | B. signalgrass plant response rating (surinam grass; [5]): 0 | B. signalgrass plant response rating (surinam grass; Rate 125 g/ha, Postemergence, scale 0 (no effect) to 10 (complete control)): 0 | Plant response rating, B. signalgrass (surinam grass; Rate 250 g/ha, Postemergence, scale 0 to 10, 0 is no effect, 10 is complete control): 0 | B. signalgrass plant response rating (surinam grass; Rate 500 g/ha, Postemergence, scale 0 to 10, 0 no effect, 10 complete control): 0 | Cocklebur plant response rating (cocklebur; [1]): 0 | Cocklebur plant response rating (0 to 10 scale) (cocklebur; [2]): 0 | Cocklebur plant response rating (cocklebur; [3]): 0 | Cocklebur plant response rating (cocklebur; [4]): 0 | Cocklebur plant response rating (cocklebur; [5]): 0 | Cocklebur plant response rating (cocklebur; [6]): 0 | Plant response rating (0 to 10; 0 is no effect, 10 is complete control), Cocklebur (cocklebur; Rate 250 g/ha, Postemergence): 0 | Cocklebur plant response rating (cocklebur; [7]): 1 | Corn plant response rating (corn; [1]): 0 | Corn plant response rating (0 to 10 scale) (corn; [2]): 0 | Corn plant response rating (corn; [3]): 0 | Corn plant response rating (corn; [4]): 0 | Corn plant response rating (corn; [5]): 0 | Corn plant response rating (corn; [6]): 0 | Plant response rating (0 to 10; 0 is no effect, 10 is complete control), Corn (corn; Rate 250 g/ha, Postemergence): 0 | Corn plant response rating (corn; [7]): 0 | Crabgrass plant response rating (crabgrass; [1]): 6 | Crabgrass plant response rating (0 to 10 scale) (crabgrass; [2]): 7 | Crabgrass plant response rating (crabgrass; [3]): 9 | Crabgrass plant response rating (crabgrass; [4]): 9 | Crabgrass plant response rating (crabgrass; [5]): 0 | Crabgrass plant response rating (crabgrass; [6]): 0 | Plant response rating (0 to 10; 0 is no effect, 10 is complete control), Crabgrass (crabgrass; Rate 250 g/ha, Postemergence): 2 | Crabgrass plant response rating (crabgrass; [7]): 9 | Giant foxtail plant response rating (giant foxtail; [1]): 6 | Giant foxtail plant response rating (0 to 10 scale) (giant foxtail; [2]): 9 | Giant foxtail plant response rating (giant foxtail; [3]): 10 | Giant foxtail plant response rating (giant foxtail; [4]): 10 | Giant foxtail plant response rating (giant foxtail; [5]): 0 | Giant foxtail plant response rating (giant foxtail; [6]): 0 | Plant response rating (0 to 10; 0 is no effect, 10 is complete control), Giant foxtail (giant foxtail; Rate 250 g/ha, Postemergence): 0 | Giant foxtail plant response rating (giant foxtail; [7]): 4 | Morningglory plant response rating (morningglory; [1]): 0 | Morningglory plant response rating (0 to 10 scale) (morningglory; [2]): 0 | Morningglory plant response rating (morningglory; [3]): 0 | Morningglory plant response rating (morningglory; [4]): 0 | Morningglory plant response rating (morningglory; [5]): 4 | Morningglory plant response rating (morningglory; [6]): 5 | Plant response rating (0 to 10; 0 is no effect, 10 is complete control), Morningglory (morningglory; Rate 250 g/ha, Postemergence): 5 | Morningglory plant response rating (morningglory; [7]): 5 | Redroot pigweed plant response rating (pigweed; [1]): 7 | Redroot pigweed plant response rating (0 to 10 scale) (pigweed; [2]): 7 | Redroot pigweed plant response rating (pigweed; [3]): 7 | Redroot pigweed plant response rating (pigweed; [4]): 10 | Redroot pigweed plant response rating (pigweed; [5]): 0 | Redroot pigweed plant response rating (pigweed; [6]): 0 | Plant response rating (0 to 10; 0 is no effect, 10 is complete control), Redroot pigweed (pigweed; Rate 250 g/ha, Postemergence): 4 | Redroot pigweed plant response rating (pigweed; [7]): 8 | Rape plant response rating (rape; [1]): 0 | Rape plant response rating (0 to 10 scale) (rape; [2]): 0 | Rape plant response rating (rape; [3]): 2 | Rape plant response rating (rape; [4]): 4 | Rape plant response rating (rape; [5]): 0 | Rape plant response rating (rape; [6]): 0 | Plant response rating (0 to 10; 0 is no effect, 10 is complete control), Rape (rape; Rate 250 g/ha, Postemergence): 0 | Rape plant response rating (rape; [7]): 2 | Soybean plant response rating (soybean; [1]): 0 | Soybean plant response rating (0 to 10 scale) (soybean; [2]): 0 | Soybean plant response rating (soybean; [3]): 0 | Soybean plant response rating (soybean; [4]): 0 | Soybean plant response rating (soybean; [5]): 1 | Soybean plant response rating (soybean; [6]): 1 | Plant response rating (0 to 10; 0 is no effect, 10 is complete control), Soybean (soybean; Rate 250 g/ha, Postemergence): 1 | Soybean plant response rating (soybean; [7]): 1 | Sugarbeets plant response rating (sugar beet; [1]): 0 | Sugarbeets plant response rating (0 to 10 scale) (sugar beet; [2]): 0 | Sugarbeets plant response rating (sugar beet; [3]): 0 | Sugarbeets plant response rating (sugar beet; [4]): 0 | Sugarbeets plant response rating (sugar beet; [5]): 0 | Sugarbeets plant response rating (sugar beet; [6]): 0 | Plant response rating (0 to 10; 0 is no effect, 10 is complete control), Sugarbeets (sugar beet; Rate 250 g/ha, Postemergence): 2 | Sugarbeets plant response rating (sugar beet; [7]): 6 | Velvetleaf plant response rating (velvetleaf; [1]): 0 | Velvetleaf plant response rating (0 to 10 scale) (velvetleaf; [2]): 0 | Velvetleaf plant response rating (velvetleaf; [3]): 0 | Velvetleaf plant response rating (velvetleaf; [4]): 5 | Velvetleaf plant response rating (velvetleaf; [6]): 0 | Plant response rating (0 to 10; 0 is no effect, 10 is complete control), Velvetleaf (velvetleaf; Rate 250 g/ha, Postemergence): 0 | Velvetleaf plant response rating (velvetleaf; [7]): 3 | Wheat plant response rating (wheat; [1]): 0 | Wheat plant response rating (0 to 10 scale) (wheat; [2]): 0 | Wheat plant response rating (wheat; [3]): 0 | Wheat plant response rating (wheat; [4]): 2 | Wheat plant response rating (wheat; [6]): 0 | Plant response rating (0 to 10; 0 is no effect, 10 is complete control), Wheat (wheat; Rate 250 g/ha, Postemergence): 0 | Wheat plant response rating (wheat; [7]): 0 | Wild oats plant response rating (wild oat; [1]): 0 | Wild oats plant response rating (0 to 10 scale) (wild oat; [2]): 0 | Wild oats plant response rating (wild oat; [3]): 0 | Wild oats plant response rating (wild oat; [4]): 3 | Wild oats plant response rating (wild oat; [6]): 0 | Plant response rating (0 to 10; 0 is no effect, 10 is complete control), Wild oats (wild oat; Rate 250 g/ha, Postemergence): 0 | Wild oats plant response rating (wild oat; [7]): 2 | Nutsedge plant response rating (purple nutsedge; [1]): 0 | Nutsedge plant response rating (0 to 10 scale) (purple nutsedge; [2]): 0 | Nutsedge plant response rating (purple nutsedge; [3]): 0 | Nutsedge plant response rating (purple nutsedge; [4]): 10 | Nutsedge plant response rating (purple nutsedge; [5]): 0 | Nutsedge plant response rating (purple nutsedge; [6]): 0 | Plant response rating (0 to 10; 0 is no effect, 10 is complete control), Nutsedge (purple nutsedge; Rate 250 g/ha, Postemergence): 0 | Nutsedge plant response rating (purple nutsedge; [7]): 0
